Laboratory results as given in article PMC11790914, “Chemogenomics for steroid hormone receptors (NR3)” (Communications Chemistry, 2025).
Where “and” joins values, the source holds several entries; their conditions need not be identical. Identical values can stand only once. Entries after “also recorded” stand apart in the source; their conditions may differ. Like-named read-outs stand apart in the source and are kept apart here.

Tests used:
NR1I3 (CAR) = molecular target: T1, NR1I3 (CAR) (Homo sapiens, UniProt Q14994); experiment: Gal4 hybrid reporter gene assay CAR; format: cell-based; conditions: n=3
T1 construct: expressed in transfected cells; host or cells: HEK293T
T1 sequence (Q14994 109-352 limits assumed): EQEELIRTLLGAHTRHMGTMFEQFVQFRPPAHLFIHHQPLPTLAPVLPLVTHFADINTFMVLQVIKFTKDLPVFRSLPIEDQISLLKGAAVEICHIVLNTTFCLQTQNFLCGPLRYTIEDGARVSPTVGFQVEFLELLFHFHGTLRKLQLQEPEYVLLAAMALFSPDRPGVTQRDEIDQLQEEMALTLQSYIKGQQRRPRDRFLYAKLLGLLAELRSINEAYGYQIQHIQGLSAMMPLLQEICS
Protocol: (§1) Reference ligands are listed in the methods section.
(§2) HEK293T cells (ATCC, Manassas, Virgina, USA; #CRL-3216) were cultured to a maximal confluence of 70–80% in DMEM, high glucose, supplemented with 10% FCS, sodium pyruvate (1 mM), penicillin (100 U/mL), and streptomycin (100 μg/mL) at 37 °C and 5% CO2 (v/v), and seeded in clear 96-well plates (4 × 10^4 cells per well). After 20–24 h, medium was changed to Opti-MEM without supplements and the cells were transiently transfected using Lipofectamine™ LTX/Plus™ Reagents (Invitrogen, Carlsbad, California, USA; #15338100) according to the manufacturer’s protocol with pFR-Luc (reporter gene; Stratagene, Agilent Technologies, Santa Clara, California, USA; #219050), pRL-SV40 (control gene for normalization of transfection efficiency and cell growth; Promega, Fitchburg, Wisconsin, USA; #E2231) and one pFA-CMV-hNR-LBD clone coding for the hinge region and ligand binding domain (LBD) of the human NR of interest. Five hours after transfection, the cells were incubated with the NR3 CG compound candidates at the recommended concentrations by changing the medium to Opti-MEM supplemented with penicillin (100 µ/mL) and streptomycin (100 µg/mL) additionally containing 0.1% DMSO and the respective test compound or 0.1% DMSO alone as untreated control. Firefly (reporter) and renilla (control) luminescence were measured after 14–16 h incubation using the Dual-Glo® Luciferase Assay System (Promega, Fitchburg, Wisconsin, USA; #E2980) according to manufacturer’s protocol on a Tecan Spark® 10M multimode microplate reader (Tecan Group AG, Männedorf, Switzerland). To obtain relative light units (RLU) firefly luminescence was divided by renilla luminescence and multiplied by 1000. Fold activation was obtained by dividing the mean RLU of a test sample by the mean RLU of the DMSO (0.1%) control. Experiments were performed in singlets in at least three biologically independent repeats. […]

[1] = tested on: ATF6 activity in Hela ATF6 reporter cells; experiment: Endoplasmic reticulum stress assay (ATF6 Renilla luciferase reporter, tunicamycin); format: cell-based; conditions: for ATF6 activity (tunicamycin-induced endoplasmic reticulum stress): Hela ATF6 reporter cells, tunicamycin 100 ng/mL, 18 h; for activity at 0.3 µM / activity at 1 µM / activity at 3 µM: Homo sapiens, HeLa, single replicates n=1 to n=5, read-out: ER stress [rel. ATF6 activity]
Method in brief: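 HeLa ATF6 Renilla reporter cells were pretreated 4 h with compounds in 0.1% DMSO, then stimulated with tunicamycin (100 ng/mL) for 18 h. Renilla luminescence (DualGlo) was normalized to 0.1% DMSO control; five independent experiments.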

NR3A1 (ERα) = conditions: cited from earlier work; for IC50: read-out: Potency [nM] IC50, NR3A1 (ERα)
HEK293T cells [2] = experiment: Cytotoxicity: growth-rate (change in confluence over 24 h); conditions: normalized to 0.1% DMSO control, single replicates (n=1...)
[3] = cited from earlier work; for Other off-target at recom. conc.: known off-target outside the NR family at the recommended concentration; for Other off-target at recom. conc. / NR off-target at recom. conc.: ref Supplementary Table 1 (superscript references); for NR off-target at recom. conc.: known NR off-target at the recommended concentration; for Reason for exclusion: number of annotated off-targets: other targets with annotated bioactivities at ≤10 µM in previously published dataset
HEK293T cells [4] = experiment: Evaluation of cytotoxicity (overall: growth-rate, metabolic activity, apoptosis, necrosis); format: cell-based; conditions: 24 h; for effects on growth-rate, metabolic activity and necrosis: HEK293T, budesonide (3 µM), others at tested concentration
Protocol: The selection of 40 CG candidates was acquired from commercial vendors (purity ≥95%) and applied to initial toxicity screening. Cytotoxicity was determined in HEK293T cells considering growth-rate, metabolic activity as well as apoptosis and/or necrosis induction to evaluate suitability of the compounds for CG application in cellular settings (Fig. 3a–d, Supplementary Fig. 1, Supplementary Data 1). The candidates were generally well tolerated at concentrations >>EC50/IC50 that we recommend for CG application with only four compounds showing mild toxic effects. […] In terms of cytotoxicity, all candidates thus appeared suitable for inclusion in an NR3 CG set.

NR1H3 (LXRα) = molecular target: T2, NR1H3 (LXRα) (Homo sapiens, UniProt Q13133); experiment: Gal4 hybrid reporter gene assay LXRα; format: cell-based; conditions: n=3
T2 construct: expressed in transfected cells; host or cells: HEK293T
T2 sequence (Q13133 209-447 limits assumed): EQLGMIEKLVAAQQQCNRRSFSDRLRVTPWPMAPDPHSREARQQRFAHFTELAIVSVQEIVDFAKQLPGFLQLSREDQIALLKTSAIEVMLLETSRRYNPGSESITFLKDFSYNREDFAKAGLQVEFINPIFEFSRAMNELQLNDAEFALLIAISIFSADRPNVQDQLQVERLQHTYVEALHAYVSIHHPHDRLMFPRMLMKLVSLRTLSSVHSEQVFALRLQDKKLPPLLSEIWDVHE
Protocol: as §1, §2

[5] = compounds at recommended concentrations, n = 5

## CC/C(=C(\c1ccc(O)cc1)c1ccc(OCCN(C)C)cc1)c1ccccc1 [(Z)-4-Hydroxytamoxifen]
NR1I3 (CAR); 3 µM, vs. DMSO ctrl
  Activity on NR targets outside NR3 family [mean log10(fold reporter gene activity)] NR1I3 (CAR): 1.13 log10(fold reporter gene activity)
[1]; 0.3 µM
  ATF6 activity (tunicamycin-induced endoplasmic reticulum stress): mediated resolution of the tunicamycin-induced endoplasmic reticulum stress
  activity at 0.3 µM: 51%
[1]; 3 µM
  ATF6 activity (tunicamycin-induced endoplasmic reticulum stress): lacked this effect
NR3A1 (ERα)
  IC50: 2 ± 1 nM
HEK293T cells [2]; 0.3 µM
  Growth rate [GR]: 1.08 and 2.89 and 1.33 and 1.37 and 0.91 and 0.88 and 0.61 and 1.06 and 2.68 and 37.77
HEK293T cells [2]; 3 µM
  Growth rate [GR]: 0.97 and 4.28 and 1.10 and 0.79 and 0.56 and 0.41 and 0.43 and 1.54 and 1.12 and 39.66
[3]
  Other off-target at recom. conc.: PLD1 and PLD2

## CC/C(=C(/c1ccc(/C=C/C(=O)O)cc1)c1ccc2[nH]ncc2c1)c1ccc(F)cc1Cl [ARN810]
NR3A1 (ERα); (lit.), ref Supplementary Table 1
  IC50: 6 nM
NR3A1 (ERα); ERα remaining (degrader), ref Supplementary Table 1
  rel. activity from literature, NR3A1 (ERα): % ERα remaining: 9%
HEK293T cells [2]; 1 µM
  Growth rate [GR]: 0.88 and 0.90 and 1.13 and 0.87 and 1.11 and 0.85
[3]
  NR off-target at recom. conc.: NR3C1; also recorded: NR3C2; also recorded: NR3C3; also recorded: NR3C4
  Other off-target at recom. conc.: GABAA and DAT
  Reason for exclusion: number of annotated off-targets: > 5 off-targets

## C[C@@H]1Cc2c([nH]c3ccccc23)[C@@H](c2c(F)cc(/C=C/C(=O)O)cc2F)N1CC(C)(C)F [AZD9496]
[1]
  activity at 1 µM: 101%
HEK293T cells [4]
  effects on growth-rate, metabolic activity and necrosis: without relevant effects
NR3A1 (ERα)
  IC50: 0.28 ± 0.04 nM
HEK293T cells [2]; 1 µM
  Growth rate [GR]: 1.04 and 0.96 and 0.95 and 1.23 and 0.78 and 0.74 (3×) and 1.43 and 4.43

## COc1ccc(-c2coc3cc(O)cc(O)c3c2=O)cc1 [Biochanin A]
NR1H3 (LXRα); 10 µM
  Activity on NR1H3 (LXRα): -0.46 mean log10(fold reporter gene activity)
NR1I3 (CAR); 10 µM
  Activity on NR1I3 (CAR): -0.24 mean log10(fold reporter gene activity)
HEK293T cells [2]; 10 µM
  Growth rate [GR]: 0.50 and 0.90 and 0.87 and 0.72 and 0.82 and 0.61
[3]
  Reason for exclusion: number of annotated off-targets: > 5 off-targets

## CCCC1O[C@@H]2C[C@H]3[C@@H]4CCC5=CC(=O)C=C[C@]5(C)[C@H]4[C@@H](O)C[C@]3(C)[C@]2(C(=O)CO)O1 (stereo partly shown) [Budesonide]
HEK293T cells [4]
  effects on growth-rate, metabolic activity and necrosis: without relevant effects
HEK293T cells [2]; 0.3 µM
  Growth rate [GR]: 0.59 and 0.92 (3×) and 1.24 and 0.68
HEK293T cells [2]; 3 µM
  Growth rate [GR]: 0.90 and 1.09 and 1.10 and 0.85 and 0.69 and 0.78
[3]
  Reason for exclusion: number of annotated off-targets: > 5 off-targets

## CCN(CC)c1ccc(/C=N/NC(=O)c2ccc(O)cc2)cc1 [DY131]
[1]; [5]
  ATF6 activity (tunicamycin-induced endoplasmic reticulum stress): strongly ameliorated the tunicamycin-induced endoplasmic reticulum stress
[1]; 3 µM
  activity at 3 µM: 25%
HEK293T cells [2]; 3 µM
  Growth rate [GR]: 0.59 and 11.37 and 0.74 and 0.90 and 0.70 and 0.29 and 0.57 and 4.91 and 1.76 and 192.70

## CC/C(=C(/CC)c1ccc(O)cc1)c1ccc(O)cc1 [Diethylstilbestrol]
[1]; [5]
  ATF6 activity (tunicamycin-induced endoplasmic reticulum stress): lacked this effect; also recorded: failed to reduce ATF6 activity
[1]; 0.3 µM
  activity at 0.3 µM: 98%
[1]; 3 µM
  activity at 3 µM: 98% and 101%
HEK293T cells [4]; 0.3 µM
  Cytotoxicity in HEK293T cells: non-toxic
HEK293T cells [2]; 0.3 µM
  Growth rate [GR]: 0.65 and 4.06 and 0.84 and 0.92 and 1.28 and 1.00 and 0.79 and 1.42 and 0.91 and 9.54
HEK293T cells [2]; 3 µM
  Growth rate [GR]: reduced the growth-rate and -0.21 and 0.65 and -0.29 and 0.04 and 0.36 and 0.21 and 0.28 and 1.17 and 0.46 and -0.41

## Cc1ccc2c(NC[C@](O)(CC(C)(C)c3cc(F)cc4c3OCC4)C(F)(F)F)cccc2n1 [Mapracorat]
NR1H3 (LXRα); 1 µM, vs. DMSO ctrl
  Activity on NR targets outside NR3 family [mean log10(fold reporter gene activity)] NR1H3 (LXRα): -0.38 log10(fold reporter gene activity)
[1]; [5]
  ATF6 activity (tunicamycin-induced endoplasmic reticulum stress): Consistently weaker ATF6 activity
[1]
  activity at 1 µM: 83%
HEK293T cells [2]; 1 µM
  Growth rate [GR]: 0.90 and 6.11 and 0.92 and 1.17 and 0.84 and 0.73 and 1.07 and 1.61 and 3.67 and 14.17

## CC#C[C@]1(O)CC[C@H]2[C@@H]3CCC4=CC(=O)CCC4=C3[C@@H](c3ccc(N(C)C)cc3)C[C@@]21C [Mifepristone]
[1]; 3 µM
  activity at 3 µM: 99%
HEK293T cells [2]; 3 µM
  Growth rate [GR]: 0.65 and 3.36 and 0.73 and 0.97 and 1.04 and 0.86 and 1.00 and 1.72 and 1.53 and 3.99

## COc1cc(/C=C(\C#N)C(=O)Nc2nnc(C(F)(F)F)s2)ccc1OCc1ccc(C(F)(F)F)cc1C(F)(F)F [XCT790]
[1]; [5]
  ATF6 activity (tunicamycin-induced endoplasmic reticulum stress): lacked this effect
[1]
  activity at 1 µM: 100%
HEK293T cells [2]; 1 µM
  Growth rate [GR]: 0.75 and 0.63 and 1.18 and 1.17 and 1.04 (2×) and 0.70 and 0.89 and 0.87 and 0.19

## C/C=C1\C(=O)C[C@H]2[C@@H]3CCC4=CC(=O)CC[C@]4(C)[C@H]3CC[C@]12C [Z-Guggulsterone]
NR1H3 (LXRα); 3 µM
  Activity on NR1H3 (LXRα): -0.71 mean log10(fold reporter gene activity)
NR1I3 (CAR); 3 µM
  Activity on NR1I3 (CAR): -0.48 mean log10(fold reporter gene activity)
HEK293T cells [2]; 3 µM
  Growth rate [GR]: 0.73 and 0.88 and 1.06 and 0.96 and 0.82 and 1.15
[3]
  NR off-target at recom. conc.: NR1H4; also recorded: NR1I2; also recorded: NR3A1; also recorded: NR3C1; also recorded: NR3C2
  Reason for exclusion: number of annotated off-targets: > 5 off-targets
